Experimental data: patent publication US20100137387A1, “BETA-KETO-AMIDE DERIVATIVES USEFUL AS ION CHANNEL MODULATORS” (NeuroSearch A/S, priority 2007, published 2010)

Key:
chloride channel = assay: In vitro human erythrocyte chloride conductance; format: cell-based; settings: suspensions of human erythrocytes; from Cl- netfluxes and membrane potentials; read-out: KD-value (chloride channel blocking activity, membrane Cl-conductance)
Description: In this example the chloride channel blocking activity of an acetamide derivative representative of the invention, i.e. Compound 3 (3-(3,5-Bis-trifluoromethyl-phenyl)-3-oxo-N-[3-(1H-tetrazol-5-yl)-4′-trifluoromethoxy-biphenyl-4-yl]-propionamide), has been determined.
All dose-response experiments were therefore performed by concomitant measurements of conductive netfluxes of Cl^− (Jcl) and membrane potentials (Vm) in suspensions of erythrocytes as described by Bennekou et al. (Bennekou P and Christophersen P: Flux ratio of Valinomycin-Mediated K^+ Fluxes across the Human Red Cell Membrane in the presence of the Protronophore CCCP; J. Membrane Biol. 1986 93 221-227).
The membrane Cl-conductances (GCl) were calculated according to Hodgkin et al. (Hodgkin A L and Huxley A F: The components of membrane conductance in the giant axon of Loligo; J. Physiol. Lond. 1952 116 449-472) using the following equation: […]
where F is the Faraday constant and ECl is the Nernst potential for the Cl-ion.

BK channels = target: T1, BK channels (Homo sapiens, UniProt Q12791); assay: BK channel activation, two-electrode voltage clamp in Xenopus laevis oocytes; format: cell-based; settings: BK channels heterologously expressed in Xenopus laevis oocytes, 0.01-31.6 μM compound
T1 construct: expressed in transfected cells; host or cells: Xenopus laevis oocytes
Experimental: In this example the BK channel opening activity of Compound 4 (i.e. N-[5-Chloro-2-(1H-tetrazol-5-yl)-phenyl]-3-(4-chloro-3-trifluoromethyl-phenyl)-3-oxo-propionamide) is determined using BK channels heterologously expressed in Xenopus laevis oocytes.
The electrical current through the BK channel is measured using conventional two-electrode voltage clamp. BK currents are activated by repeating ramp protocols. In brief, the membrane potential is continuously changed from −120 mV to +120 mV within 2 s. The threshold for BK activation is approximately +30 mV under control conditions. Compounds are applied for 100 s during which the ramp protocol is repeated 10 times with 10 s intervals. In between the ramp protocols the membrane potential is clamped at −80 mV. […]
In order to evaluate the ability of the compounds to shift the BK activation curve towards lower membrane potentials, the BK current was transformed into conductance by using Ohm's law g=I/(Ememb−Erev), where g is the conductance, I is the current, Ememb is the membrane potential and Erev is the reversal potential. […] The control conductance level at a membrane potential of +100 mV was calculated, and the compound effect was evaluated as the potential difference, ΔV, to the membrane potential at which the same conductance level was obtained in the presence of compound. […]

T1 sequence (Q12791 whole entry): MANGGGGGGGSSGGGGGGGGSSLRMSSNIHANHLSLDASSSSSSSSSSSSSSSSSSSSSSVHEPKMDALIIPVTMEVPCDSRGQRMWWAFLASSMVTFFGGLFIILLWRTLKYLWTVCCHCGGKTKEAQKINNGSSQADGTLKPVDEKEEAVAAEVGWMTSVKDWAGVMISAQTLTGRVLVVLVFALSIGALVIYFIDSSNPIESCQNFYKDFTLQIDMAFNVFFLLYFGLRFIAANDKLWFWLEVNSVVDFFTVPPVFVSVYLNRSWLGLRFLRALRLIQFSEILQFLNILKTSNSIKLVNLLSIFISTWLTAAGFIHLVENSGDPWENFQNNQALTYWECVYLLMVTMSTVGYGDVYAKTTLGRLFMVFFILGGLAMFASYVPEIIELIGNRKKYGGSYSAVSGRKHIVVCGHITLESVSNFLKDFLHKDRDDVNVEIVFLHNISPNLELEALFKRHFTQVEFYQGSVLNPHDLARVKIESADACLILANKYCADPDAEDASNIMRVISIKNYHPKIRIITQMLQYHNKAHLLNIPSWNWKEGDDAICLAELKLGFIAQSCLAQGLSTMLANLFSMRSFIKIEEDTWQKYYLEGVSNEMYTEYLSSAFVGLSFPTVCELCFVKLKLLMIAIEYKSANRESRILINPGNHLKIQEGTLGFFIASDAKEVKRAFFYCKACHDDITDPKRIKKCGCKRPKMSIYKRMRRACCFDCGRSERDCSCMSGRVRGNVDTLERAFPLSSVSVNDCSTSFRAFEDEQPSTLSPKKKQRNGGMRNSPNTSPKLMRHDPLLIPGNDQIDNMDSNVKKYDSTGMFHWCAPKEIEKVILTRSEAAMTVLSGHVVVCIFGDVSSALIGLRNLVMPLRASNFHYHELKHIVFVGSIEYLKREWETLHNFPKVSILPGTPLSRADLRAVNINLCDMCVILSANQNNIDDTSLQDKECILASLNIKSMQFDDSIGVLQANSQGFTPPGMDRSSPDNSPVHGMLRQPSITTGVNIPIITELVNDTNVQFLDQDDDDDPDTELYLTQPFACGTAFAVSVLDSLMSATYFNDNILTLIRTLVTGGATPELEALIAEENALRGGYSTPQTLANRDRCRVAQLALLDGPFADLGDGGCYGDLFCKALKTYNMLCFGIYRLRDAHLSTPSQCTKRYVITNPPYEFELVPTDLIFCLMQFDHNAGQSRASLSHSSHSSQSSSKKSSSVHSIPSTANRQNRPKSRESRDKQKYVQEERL

Row | Kd (chloride channel) [nM] | ΔVmax (maximal left shift of the BK activation curve) (BK channels; fitted to sigmoidal logistic equation) [mV] | EC50 (BK channels; ΔV vs. control conductance at +100 mV, read-out: EC50 for the left-shift of the BKCa-activation curve) [nM] | SMILES
1 | 210 | – | – | O=C(CC(=O)c1cc(C(F)(F)F)cc(C(F)(F)F)c1)Nc1ccc(-c2ccc(OC(F)(F)F)cc2)cc1-c1nnn[nH]1 [Compound 3, 3-(3,5-Bis-trifluoromethyl-phenyl)-3-oxo-N-[3-(1H-tetrazol-5-yl)-4′-trifluoromethoxy-biphenyl-4-yl]-propionamide]
2 | – | −123 | 1800 | O=C(CC(=O)c1ccc(Cl)c(C(F)(F)F)c1)Nc1cc(Cl)ccc1-c1nnn[nH]1 [Compound 4, N-[5-Chloro-2-(1H-tetrazol-5-yl)-phenyl]-3-(4-chloro-3-trifluoromethyl-phenyl)-3-oxo-propionamide]
